Assay results as given in patent US9168306B2, “Drug delivery agents comprising cyclodextrin covalently linked to a gemini surfactant, and pharmaceutical compositions comprising the same” (University of Saskatchewan, priority 2011, dated 2015).
“And” between values parts separate entries of the source, which are not always exact repeats. Equal entries are not always repeated.

Legend:
[1] = tested on: a number of cancer cells, including human SK-MEL-5 cells; conditions: literature values; cited from earlier work
[2] = tested on: A375 cells; experiment: Flow cytometry cell cycle analysis (propidium iodide); format: cell-based, human; conditions: delivery agent alone as control, 14 μM; 48 h
Procedure: (§1) A375 cells at the second passage were seeded at a density of 1×10^6 cells per well in 6 well tissue culture-treated plates. Cells were incubated at 37° C. in a humidified incubator with 5% CO2 and 95% air, overnight. […] The resveratrol and sodium butyrate controls were used to calibrate the flow cytometer for cell cycle arrest in the A375 cell. All treatments were performed in triplicate wells. Cells were incubated with the formulations and controls for 48 h. All cells, floating and adherent, were collected, the triplicate wells pooled and washed in PBS. The cell populations were divided into two. Half of the cells was fixed in 70% ethanol for 2 h, washed twice in 300 μg/mL RNase A (Qiagen) in PBS. The cell pellet was resuspended in PBS and stained with propidium iodide, 20 μg/mL (Sigma). The other half of the cells was suspended in binding buffer and stained as per the Annexin V-FITC Apoptosis Detection Kit (BioVision) protocol.
(§2) Flow cytometry was performed with a FacsCalibur instrument (BD Biosciences). The treatment groups were analyzed using ModFit LT flow cytometry modeling software (Verity Software House, Inc) after gating the area of non-treated cells by excluding aggregates and debris.

[3] = Size and ζ-potential measurement of compositions (Zetasizer Nano ZS); format: physicochemical
Procedure: Due to their low solubility in water, for the in vitro testing, each drug was dissolved in dimethylsulfoxide (DMSO, Sigma) at 2 mM concentration. The drug was added at increasing concentrations of 0.01-200 μM to the supplemented media with the final DMSO concentration of 2% exposed to the cells. For the formulations, CD or CDgemini was dissolved in water (10 mM) and the drugs were dissolved in methanol (2 mM). The delivery agent to drug mole ratio was maintained at 2:1. The solvent mixture was evaporated in a rotary evaporator under vacuum and the residue was reconstituted in water. Samples were dispersed by sonication for 2 h and stored overnight at 4° C. Samples were re-sonicated, prior to diluting in supplemented media, for 15 min.
Compositions were prepared as described above. The size and ζ-potential of the particles were measured with a Zetasizer Nano ZS instrument (Malvern Instruments, UK). Results are reported as the mean of 3-5 measurements±standard deviations.

[4] = tested on: A375 cells; experiment: Flow cytometry apoptosis assay (Annexin V-FITC / propidium iodide); format: cell-based, human; conditions: delivery agent alone as control, 14 μM; 48 h
Procedure: as §1, with “The other half of the cells was suspended in binding buffer and stained as per the Annexin V-FITC Apoptosis Detection Kit (BioVision) protocol.” left out
as §2
The type of cell death of the A375 cells after treatment of the compositions was captured by performing the apoptosis assay (as shown in FIG. 7). […] Apoptosis was measured by dual staining of the cells with Annexin V-FITC and propidium iodide. […]

[5] = Transmission electron microscopy of compositions; format: physicochemical
Procedure: Drug/CDgemini conjugates prepared for the size measurements were used for TEM. Aliquots of 10 μL samples were dropped onto 300-mesh formvar-coated copper grids (SPI Supplies) and incubated for 5 min at room temperature. The water was wicked off the grids with absorbent tissue and the grids were stained with 1% phosphotungstic acid for 2 min. The stain was removed and the grids were dried at room temperature for 15 min. The samples were examined with a Philips CM10 electron microscope at an accelerating voltage of 80 kV.

Particle size Peak 1 Intensity [3] [%]	ζ potential [3]	Particle size Peak 1 ([3]; mean of 3-5 measurements ± SD) [nm]	PDI ([3]; polydispersity index)	size of particles in TEM images [5]	Compound	cytotoxic concentrations [1] [µM]	cells in G0/G1 [2] [%]	cells in S-phase [2] [%]	apoptosis, of the total population [4] [%]	formation of supramolecular aggregates [3]
–	–	–	–	–	N[C@@H](Cc1ccc(N(CCCl)CCCl)cc1)C(=O)O [melphalan]	52 to 219	–	–	–	–
100	5.74±0.53 mV and 5.7 ± 0.5 mV	153.6±4.3	0.2	100-150 nm	CCCCCCCCCCCC[N+](C)(C)CCCN(CCC[N+](C)(C)CCCCCCCCCCCC)C(=O)CCC(=O)OCC1OC2OC3C(CO)OC(OC4C(CO)OC(OC5C(CO)OC(OC6C(CO)OC(OC7C(CO)OC(OC8C(CO)OC(OC1C(O)C2O)C(O)C8O)C(O)C7O)C(O)C6O)C(O)C5O)C(O)C4O)C(O)C3O.[Cl-].[Cl-] (stereo not drawn) [CDgemini, [mono-6-o-(3{bis(3-(N-dodecyl-N,N-dimethylamino)-propyl)-carbamoyl}propanoyl)-beta-cyclodextrin]^2+]	–	65	35	31	–
–	–	–	–	–	OC[C@H]1O[C@@H]2O[C@H]3[C@H](O)[C@@H](O)[C@@H](O[C@H]4[C@H](O)[C@@H](O)[C@@H](O[C@H]5[C@H](O)[C@@H](O)[C@@H](O[C@H]6[C@H](O)[C@@H](O)[C@@H](O[C@H]7[C@H](O)[C@@H](O)[C@@H](O[C@H]8[C@H](O)[C@@H](O)[C@@H](O[C@H]1[C@H](O)[C@H]2O)O[C@@H]8CO)O[C@@H]7CO)O[C@@H]6CO)O[C@@H]5CO)O[C@@H]4CO)O[C@@H]3CO [CD, β-Cyclodextrin, reference compound]	–	56	43	25	neither CD nor drug/CD conjugates formed supramolecular aggregates
